Assay results from patent EP1370276B1, “INTERCELLULAR COMMUNICATION FACILITATING COMPOUNDS AND THEIR MEDICAL USE” (Zealand Pharma A/S, priority 2001, dated 2002).
[ ]: non-standard residue; d: D form. Hyp = O=C(O)[C@@H]1C[C@@H](O)CN1

Assays:
[1] = biological target: murine heart tissue preparations; experiment: Displacement of [125I]AAP10 from murine heart tissue preparations; format: binding, mice; settings: displacement of 0.8 nM [125I]AAP10, filtrate; read-out: Filtrate IC50
Protocol: Hearts are excised from mice (Balb/cJ, 20 g), rinsed twice in ice-cold (0°C) 0.32 M sucrose and homogenized on ice in 10 volumes of sucrose with an Ultra Turrax homogeniser (1000 rpm) for 2 minutes. The homogenate is centrifuged at 1000 gmea" for 10 minutes at 4° C and the supernatant collected and filtrated through 4 layers of gauze. The filtrate is then centrifuged at 50,000 gmean for 45 min at 4° C and the pellet resuspended in 10 volorg. wet weight ice-cold distilled water and incubated for 60 min at 0° C and re-centrifuged at 50,000 gmean at 45 min at 4° C. The resulting pellet is resuspended in 2 vol org. wet weight of PBS (Phosphate Buffered Saline) and stored at - 80° C until use.

[2] = tested on: phosphoinositol turnover in rat primary cardiomyocytes; experiment: Phosphoinositol turnover in primary cardiomyocyte cultures; format: cell-based; settings: for EC50: enhancement of phospho-inositol turnover
Protocol: Neonatal Wistar rats (1-2 days old) are used. Hank's calcium- and magnesium-free balanced salt solution, buffered with 10 mM HEPES is used for washing during cell separation procedures. The hearts are excised, the ventricles isolated and the tissue cut into small pieces. The myocardial cells are isolated by stepwise enzymatic degradation with collagenase 0.05%, as described by ^[35]. After repeated rounds of centrifugation and washing, the precipitated cells are resuspended in culture medium M199 with Earle's salt, 10% NCS, penicillin (75 U/mL), and streptomycin (75 U/mL) and pre-plated in a Petri dish for 90 minutes. The non-adherent cells are collected in the culture medium and plated in multidishes at 2.5*10^5 cells/well. The cultures are kept in a water-saturated CO2-incubator at 37°C. The cardiomyocyte cultures are used for analyses after 6-7 days.
Cardiomyocyte cultures are incubated for 48 hours in culture medium containing 4 µCi/mL myo-[2-^3H]inositol to label the inositol phospholipids. On the day of analysis the medium is replaced by a buffer solution containing lithium and incubated at 37°C, as described by Meier et al. ^[36]. After at least five minutes this buffer is replaced by the same volume of buffer containing test compound and incubated for exactly 20 minutes. The reaction is stopped by rapid replacement of the buffer by ice cold 4%v/v perchloric acid (PCA) and incubation for at least 20 minutes at 0°C. The PCA-extract is neutralised and the [^3H]inosltol phosphates are separated by anion-exchange chromatography using Amprep™ columns containing 100 mg SAX Quaternary amine. The [^3H]inositol mono-phosphates are eluted and radioactivity in the fraction measured by liquid scintillation counting.
Before adding test substances to the cultures, the cells are depleted of glucose and oxygen by incubating them in a N2-atmosphere in glucose-free lithium-buffer for 10 minutes at 37°C. Control cells are incubated likewise only at normal atmospheric conditions and in a buffer containing glucose.

[3] = tested on: isolated perfused rabbit hearts; experiment: Isolated perfused rabbit heart (Langendorff), APD90 dispersion during hypokalemic ischemia; settings: 10^-10 mol/l
[4] = tested on: calcium-induced arrythmias; experiment: Calcium-induced arrhythmia model in mice (time to 2nd degree AV-block); format: in vivo; settings: for CaCl2 mice Score / CaCl2 mice In vivo, %: calcium chloride induced arrythmia model; for CaCl2 mice Score: no key for the score; for In vivo activity: maximal effect, increase in time until 2nd degree AV-block relative to vehicle, i.v.
Protocol: The antiarrhythmic effects of compounds of this invention were tested in an in vivo model of calcium-induced arrythmias according to the model of Lynch et al. ^[37]. […]. Commercial solutions of hypnorm and midazolam were diluted 1:1 in distilled water and one part diluted Hypnorm® is mixed with one part diluted midazolam.
The anaesthesia was induced by s.c. administration in a dose of […]. An i.v. cannula was inserted into the tail vein. The lead II ECG signal was recorded continuously by positioning of a stainless steel ECG electrodes on the right forelimb and on the left hind limb. The ground electrode was placed on the right hind limb. The signal was amplified (x 5.000-10.000) and filtered (0.1-150 Hz) via a Hugo Sachs Electronic model 689 ECG module. The analogue signal was digitised via a 12 bit data acquisition board (Data Translation model DT321) and sampled at 1000 Hz using the Notocord HEM 3.1 software for Windows NT. After a 10-min equilibration period, the test sample of drug was injected into the tail vein. Mice pre-treated with vehicle were tested as a measure of the control level in untreated animals. The injection volume was 100 µl in all experiments. Infusion of CaCl2 (30 mg/ml, 0.1 ml/min ≈ 100 mg/kg/min (calciumchlorid-2-hydrat, Riedel-de Haën, Germany)) was started 3 min after i.v. administration of drug or vehicle. The time lag to onset of 2nd degree AV-block was determined as the time from the start of CaCl2 infusion until the first arrhythmic event occured. An event of 2nd degree AV-block was defined as intermittent failure of the AV conduction characterised by a P-wave without the concomitant QRS complex.
Responses were expressed relative to the time until 2nd degree AV-block occurred in vehicle treated mice.

CHO cells = experiment: In situ binding of [125I]AAP10 on intact CHO cells; settings: overnight at 4° C
Protocol: CHO cells are seeded in 24-multi well dishes in a density of 7,900 cells/cm^2 (∼ 15,000 cells/well) and grown for 3 Days In Vitro (DIV) in 1 ml/well of F-12K Nutrient Mixture supplemented with 10% Foetal Calf Serum (FCS) and 1000 units penicillin/1000 µg streptomycin (pen/strep) in an atmosphere of 5% CO2 and 100% humidity at 37° C. The cell density has at that time increased to 295,000 cells/cm^2 (152 pgprot/cell ∼ 85 µgprot/well).
On the day of analysis cells are removed from the incubator and each well is washed twice with, depending on the experiment, either 2 ml pre-warmed (37 °C) or ice-cold (0 °C) D-PBS to remove serum. It is important to keep the period to a minimum during which cells are left without physiological solutions to avoid that they dry out during washing procedures. The cold washed cells are used directly for binding assays while the warm washed cells are used for experiments with glucose and oxygen deprivation.
The in situ binding is performed by a modified protocol based on the description by Koenig. […] Cells incubate overnight at 4° C to reach equilibrium. Each well, one at the time, is then rinsed rapidly with 2 x 1 ml D-PBS and left to dry.
0.25 ml of 0.5 % Triton-X-100 (v/v) is added to each well and cells left for at least 1 h to solubilize. The extract is transferred to counting vials, the wells rinsed with 0.25 ml water and the rinse extract added to the corresponding vials. The vials are counted in a γ-counter. Table 3. In situ binding, IC50 (nM).

[5] = tested on: cAMP formation in CHO cells; experiment: Inhibition of forskoline stimulated cAMP formation in CHO cells; format: cell-based; settings: 10 µM forskoline, 20 min, cells pre-treated with glucose and oxygen deprivation
Protocol: CHO cells are seeded in 96-well microtiter plates in a density of 6,000 cells/cm^2 (∼ 2,000 cells/well) and grown for 4 days in vitro in 200 µl/well of growth media as described in the previous section.
On the day of analysis cells are removed from the incubator and washed twice with 200 µl pre-warmed (37°C) D-PBS (pH 7.2) to remove serum. Cells are incubated for 10 min in glucose free D-PBS and an N2-atmosphere as described in the previous section.
CHO cells are incubated at 37° C in D-PBS (pH 7.2) containing 6 mM glucose, 2.0 mM IBMX (phospodiesterase blocker), 10 µM forskoline (stimulates cAMP formation) and increasing concentrations of test peptide. The reaction is stopped after 20 min by addition of 20 µl 0.5 M HCl and left for at least 20 min at room temperature.
The content of cAMP is analysed by mixing 20 µl of the acid cell extract into FlashPlate™ wells (NEN assay kit SMP001) containing 180 µl [^12SI]cAMP tracer solution. FlashPlates™ are incubated overnight at 4° C and plate bound radioactivity counted in TopCount (Packard Instrument). Data are calculated as described in the previous section.

[6] = In vitro plasma and serum stability, human; format: in vitro ADME; settings: for T1/2 PLASMA, HEPARIN HUMAN: 37°C
Protocol: (§1) The stability of peptides is analysed in serum and plasma. The peptides are incubated at 37°C in plasma or serum and samples taken at approx. 9 regular intervals between t=0 and t=156 min are analysed by HPLC.
This is done by subsequent injections of the drug, plasma, and a co-injection with the drug and the plasma, followed by optimisation of the LC method parameters until a satisfactory separation is obtained. Three parallel experiments are performed for each plasma type.100 ml of peptide is mixed with 900 ml plasma at t = 0 and incubated at 37°C (drug-plasma mixture conc. 0.1 mg/ml). Samples of 100 ml of the drug-plasma mixture are removed at appropriate intervals and the degradation stopped by precipitation of the sample with 10 ml MeCN:TFA 50:50 v/v. A control plasma sample without the drug treated in the same manner is also taken. The plasma samples are centrifuged for 15 min. at 12,000 rpm (Eppendorf centrifuge) at ambient temperature. The resulting supernatant solution is transferred to 300 ml HP autosamler vials and analyzed by HPLC. The samples are analyzed in the following order: blank, the peptide at 0.1 mg/mL, the plasma without the peptide, the three parallel samples for t = 0, the three parallel samples for t = 5 min. the three parallel samples for t = 10 min. etc. And finally the three parallel samples for t = 0 are repeated to make sure that there have been no degradation or other failure during the analyses. The sample concentrations (peak height in mAU) are plotted vs. time and fitted to a function describing a mono exponential decay (Excel). […] Table 7. Results of in vitro stability test in plasma and serum, T1/2 in min and hrs

[7] = In vitro plasma and serum stability, rabbit; format: in vitro ADME; settings: 37°C
Protocol: as §1
This is done by subsequent injections of the drug, plasma, and a co-injection with the drug and the plasma, followed by optimisation of the LC method parameters until a satisfactory separation is obtained. Three parallel experiments are performed for each plasma type.[…] at t = 0 and incubated at 37°C (drug-plasma mixture conc. 0.1 mg/ml). Samples of 100 ml of the drug-plasma mixture are removed at appropriate intervals and the degradation stopped by precipitation of the sample with 10 ml MeCN:TFA 50:50 v/v. A control plasma sample without the drug treated in the same manner is also taken. The plasma samples are centrifuged for 15 min. at 12,000 rpm (Eppendorf centrifuge) at ambient temperature. The resulting supernatant solution is transferred to 300 ml HP autosamler vials and analyzed by HPLC. The samples are analyzed in the following order: blank, the peptide at 0.1 mg/mL, the plasma without the peptide, the three parallel samples for t = 0, the three parallel samples for t = 5 min. the three parallel samples for t = 10 min. etc. […]

Substance | IC50 [1] [nM] | EC50 value relative to the EC50 value for Compound 2 ([2]; during metabolic stress induced by anoxia and glucose deprivation) [fold] | EC50 value relative to the EC50 value for Compound 2 ([2]; during normoxia) [fold] | EC50 ([2]; Glucose and oxygen deprivation) [nM] | EC50 ([2]; Normal conditions) [nM] | increase in APD90 dispersion during hypokalemic, acute myocardial ischemia [3] | CaCl2 mice Score [4] | In vivo activity [4] | IC50 (CHO cells) [nM] | EC50 [5] [nM] | CaCl2 mice In vivo, % [4] | T1/2 PLASMA, HEPARIN HUMAN [6] | Human plasma half life [6] [h] | T1/2 PLASMA, HEPARIN RABBIT [7]
H-GAG[Hyp]PY-NH2 [AAP10, reference compound] | 1.2 | 10 | 200 | 100 | 2000 | ineffective | 3 | +++ (+++ refers to >60% increase in time until arrhythmia) | 130 | 11 | – | – | – | –
cyclo(GAG[Hyp]PYN) | – | – | – | – | – | – | 2 | – | – | – | 57 +/- 8% | 9 hrs ± 1% | 13 | 30 hrs ± 8%
cyclo(GAG[Hyp]PYQ) | – | – | – | – | – | – | 2 | – | – | – | 48 +/- 14% | 15 hrs ± 1% | 15 | 14 hrs ± 2%
H-GP[Hyp]GAG-OH [AAP, reference compound] | 1.2 | – | – | – | – | – | 2 | ++ (++ refers to 30-50% increase in time until arrhythmia) | 0.8 | 53 | – | – | – | –
